Measured values as given in publication PMC12612973, “Inhibition of Human Amylin Aggregation: In Silico and In Vitro Studies” (ACS Omega, 2025).
“And” between values parts separate entries of the source, which are not always exact repeats. Equal values may be shown once. Read-outs that look alike come from different tables or passages of the source.

Legend:
Pancreatic INS-1E cells = assay: MTT cytotoxicity assay of amylin aggregates aged with or without inhibitors; format: cell-based; settings: for effect on INS-1E cell viability in presence of amylin: INS-1E cells cultured with the MTDLs
Protocol: In this study, we utilized Pancreatic INS-1E cells (Department of Cell Physiology and Metabolism, University Medical Center, Switzerland) due to their close physiological similarity to native β-cells, making them highly relevant to our experimental objectives. Pancreatic INS-1E cells were grown in RPMI 1640 medium, supplemented with 2 mM glutamine, 5% fetal calf serum, 10 mM HEPES (pH 7.4), 1 mM sodium pyruvate, 50 μM 2-mercaptoethanol, 100 units/mL penicillin, and 0.1 mg/mL streptomycin. The culturing environment was maintained at 37 °C, 5% CO2, pH 7.4.
The toxicity of human amylin aggregates in the presence or absence of different compounds in the presence of 2% DMSO was assessed by the 3-(4,5-dimethylthiazol-2-yl)-2,5-diphenyltetrazolium bromide (MTT) reduction assay. The cells were cultured and then seeded into 96-well plates and grown for 24 h prior to exposure to different intermediates of amylin or a mixture of amylin with the MTDLs. The final amylin concentration within the culture medium was 5 μM. Cell viability was expressed as the percentage of MTT reduction, using cells treated with the same buffer volume as a reference (100% MTT reduction). The values (averages ± S.D.) were obtained from three independent experiments.

human amylin (hIAPP) [1] = biological target: T1, human amylin (hIAPP) (Homo sapiens, UniProt P10997); assay: Kinetic analysis of amylin aggregation (ThT, two-step autocatalytic aggregation model); format: biochemical; settings: mean ± S.D.; for t 0 (time point when the aggregation starts): 10% of highest ThT fluorescence; for t 1/2 (aggregation halftime): 50% of highest ThT fluorescence; for t 1 (aggregation endpoint): 90% of highest ThT fluorescence; for k / k e (elongation constant) / k n (nucleation constant) / ρ (ratio of kn to k): ThT data, autocatalytic aggregation model
T1 construct: purchased Bachem USA
T1 sequence (P10997 34-70 limits assumed): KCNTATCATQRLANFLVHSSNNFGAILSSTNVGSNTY
Protocol: Kinetic analysis was performed according to the model of autocatalytic aggregation. According to Sabaté et al., aggregation is a two-step process, comprising nucleation (described by the k n constant) and fibrillation phases (represented by the k e constant). Two constants (k n and k e) are calculated using the eq : 5 f=ρ{e^[(1+ρ)kt]−1}/{1+ρe^[(1+ρ)kt]} where k = k e a (where a represents the initial concentration of the aggregating peptide), f stands for a fraction of the fibrillar form in the system, and ρ denotes the dimensionless ratio of k n to k. The parameters k and ρ were calculated first, then k n and k e.
Data were normalized as a fraction of the highest fluorescence from the three trials and fitted into the model of autocatalytic aggregation. The same procedure was repeated for the remaining trials. The second calculation aimed to find the time parameters of the aggregation process: t 0 (time point when the aggregation starts), t 1/2 (aggregation halftime), and t 1 (aggregation endpoint). t 0, t 1/2, and t 1 were calculated as 10%, 50%, and 90% of the highest fluorescence measurements from the three trials, respectively. All calculations were performed using GraphPad Prism 9.5.1, Statistica 13.3.721.1, and Microsoft Excel 2304.

human amylin (hIAPP) [2] = biological target: T1, human amylin (hIAPP); assay: Fluorescence quenching of amylin: Stern-Volmer, binding and thermodynamic analysis; settings: for quenching of amylin's intrinsic fluorescence: compound 0 to 20 μM, excitation 275 nm; for Kd: read-out: K b (binding constant) (converted); for ΔH / ΔS: Van't Hoff plot, 25/30/37 °C
Protocol: The fluorescence emission scans (wavelengths 290 to 500 nm) of 10-fold diluted amylin samples were acquired with a PerkinElmer model LS 55. The excitation wavelength was set at 275 nm to observe the fluorescence of the tyrosine residue exclusively. The integrated spectrum from 290 to 450 nm was used to obtain the relative fluorescence values of Tyr. Fluorescence measurements were performed in 1 cm light-path quartz cuvettes, with both excitation and emission bandwidths set to 5 nm. Sample fluorescence was determined by subtracting the fluorescence of the buffer. Each experiment was performed in duplicate. ,
Quenching titrations with acrylamide were carried out by adding varying amounts of a quencher stock solution (5 M) to the protein solution (∼15 μM diluted 10-fold). , The excitation wavelength was set at 275 nm, and the fluorescence emission spectra were scanned from 275 to 500 nm using a PerkinElmer model LS 55. The emission and excitation slits were set to 5 and 10 nm, respectively, and a 1 cm cuvette was used for all experiments. According to the Stern–Volmer equation, the integration area between 290 and 450 nm was used for data analysis. , Before analyzing the quenching data, the fluorescence emission spectra were corrected for volume changes, scattering effects, and the inner filter effect due to acrylamide absorption. , Each experiment was performed in duplicate. The quenching mechanism analysis by the Stern–Volmer equation was calculated according to eq . F 0 is the fluorescence intensity without the quencher, and F is the intensity with a quencher. K sv is the Stern–Volmer quenching constant, while Q is the quencher concentration. K q is the biomolecular quenching constant, and τ0 is the average lifetime of the fluorophore. 1 F0/F=1+Ksv[Q]=1+Kqτ0[Q]
The parameter n obtained from the fit is treated as an apparent slope/exponent (heterogeneous populations and partial fluorophore accessibility) and is not interpreted as the literal number of binding sites. 2 log(F0−F)/F=logKb+nlog[Q]
The Van’t Hoff equation was used to calculate the various thermodynamic interaction parameters. Equation was implemented to calculate the free energy change. 3 lnKb=−ΔH^°/RT+ΔS^°/R 4 ΔG^°=ΔH^°−TΔS^°=−RTlnKb

human amylin (hIAPP) [3] = biological target: T1, human amylin (hIAPP); assay: Thioflavin T (ThT) fluorescence assay of amylin aggregation; format: biochemical; settings: read-out: IC50 of amylin aggregation inhibition

SMILES	effect on INS-1E cell viability in presence of amylin (Pancreatic INS-1E cells)	t 0 (time point when the aggregation starts) (human amylin (hIAPP) [1]) [h]	t 1/2 (aggregation halftime) (human amylin (hIAPP) [1]) [h]	t 1 (aggregation endpoint) (human amylin (hIAPP) [1]) [h]	k (human amylin (hIAPP) [1]) [h^–1]	k e (elongation constant) (human amylin (hIAPP) [1])	k n (nucleation constant) (human amylin (hIAPP) [1])	ρ (ratio of kn to k) (human amylin (hIAPP) [1])	K q (quenching constant) (human amylin (hIAPP) [2]; 25 °C)	K sv (Stern–Volmer quenching constant) (human amylin (hIAPP) [2]; 25 °C)	n (apparent slope/exponent, binding sites) (human amylin (hIAPP) [2]; 25 °C)	ΔG (human amylin (hIAPP) [2]; 25 °C)	quenching of amylin's intrinsic fluorescence (human amylin (hIAPP) [2]; 25 °C)	Kd (human amylin (hIAPP) [2]; 25 °C) [µM]	K q (quenching constant) (human amylin (hIAPP) [2]; 30 °C)	K sv (Stern–Volmer quenching constant) (human amylin (hIAPP) [2]; 30 °C)	n (apparent slope/exponent, binding sites) (human amylin (hIAPP) [2]; 30 °C)	ΔG (human amylin (hIAPP) [2]; 30 °C)	Kd (human amylin (hIAPP) [2]; 30 °C) [µM]	K q (quenching constant) (human amylin (hIAPP) [2]; 37 °C)	other results
CC(C)(C)c1cccc(CNCC(O)CNCCC(c2ccccc2)c2ccccc2)c1 (stereo not shown) [Compound 18]	retained cell viability	9.31 ± 0.72	19.02 ± 0.57	29.29 ± 0.36	0.2087 ± 0.0084	13913 M^–1h^–1 and 13913 ± 560 M^–1h^–1	0.004 h^–1 and 0.0039 ± 0.0009 h^–1	0.0186 ± 0.0051	5.80 ± 0.17 10^12 M^–1 s^–1	3.43 ± 0.21 10^4 M^–1	0.60 ± 0.12	–5.99 ± 0.10 kJ/mol	substantial quenching	2500	4.57 ± 0.11 10^12 M^–1 s^–1	2.70 ± 0.39 10^4 M^–1	0.75 ± 0.10	–6.99 ± 0.20 kJ/mol	769	3.90 ± 0.12 10^12 M^–1 s^–1	cell viability difference versus the sample with amylin fibrils (Pancreatic INS-1E cells; INS-1E cells 24 h, amylin aggregates aged 36 h with 2.92 μM compound 18 or 3.31 μM compound 21): approximately 30 % points; K sv (Stern–Volmer quenching constant) (human amylin (hIAPP) [2]; 37 °C): 2.30 ± 0.18 10^4 M^–1; n (apparent slope/exponent, binding sites) (human amylin (hIAPP) [2]; 37 °C): 0.92 ± 0.10; ΔG (human amylin (hIAPP) [2]; 37 °C): –8.38 ± 0.30 kJ/mol; Kd (human amylin (hIAPP) [2]; 37 °C): 286 µM; ΔH (human amylin (hIAPP) [2]): 12.74 ± 1.17 kcal/mol; ΔS (human amylin (hIAPP) [2]): 199.00 ±14.13 J/mol K; IC50 (human amylin (hIAPP) [3]): 3.04 µM
CC(C)(C)c1cccc(CNCC(O)CCNCCC(c2ccccc2)c2ccccc2)c1 (stereo not shown) [Compound 22]	retained cell viability	4.36 ± 0.16	11.87 ± 1.02	20.69 ± 2.27	0.2326 ± 0.0366	15505 M^–1h^–1 and 15505 ± 2437 M^–1h^–1	0.014 h^–1 and 0.0142 ± 0.0006 h^–1	0.0624 ± 0.0126	5.67 ± 0.16 10^12 M^–1 s^–1	3.35 ± 0.18 10^4 M^–1	0.80 ± 0.15	–5.05 ± 0.27 kJ/mol	substantial quenching	1000	3.89 ± 0.11 10^12 M^–1 s^–1	2.30 ± 0.27 10^4 M^–1	1.06 ± 0.10	–7.19 ± 0.17 kJ/mol	20.9	2.88 ± 0.12 10^12 M^–1 s^–1	cell viability difference versus oleuropein aglycone (Pancreatic INS-1E cells; INS-1E cells 24 h, amylin aggregates aged 36 h with compound): around 8 % points; cell viability (MTT reduction) (Pancreatic INS-1E cells; INS-1E cells 24 h with amylin aggregates aged 36 h in presence of compound (2.61 μM of compound 22)): ~93%; cell viability higher than that of the control (Pancreatic INS-1E cells; cytotoxicity assay, discussion statement): ~40%; K sv (Stern–Volmer quenching constant) (human amylin (hIAPP) [2]; 37 °C): 1.70 ± 0.13 10^4 M^–1; n (apparent slope/exponent, binding sites) (human amylin (hIAPP) [2]; 37 °C): 1.15 ± 0.15; ΔG (human amylin (hIAPP) [2]; 37 °C): –10.23 ± 0.41 kJ/mol; Kd (human amylin (hIAPP) [2]; 37 °C): 10.7 µM; ΔH (human amylin (hIAPP) [2]): 29.637 ± 1.08 kcal/mol; ΔS (human amylin (hIAPP) [2]): 433.00 ± 9.13 J/mol K; IC50 (human amylin (hIAPP) [3]): 2.71 µM
